Source: ChEMBL document CHEMBL1151340, “Antimicrobial agents from higher plants. Antimicrobial isoflavanoids and related substances from Glycyrrhiza glabra L. var. typica” (1980)
Converted amounts (≈) assume the structure as drawn. The source made the active and inactive calls. The calls are words filed in the database; no cut-off is given here.

Columns and labels:
Escherichia coli [1] = assay: Antibacterial activity against Escherichia coli ATCC 9637 at 100 mcg/ml by agar-dilution streak method; format: functional, organism-based
Candida albicans [2] = assay: Antifungal activity against Candida albicans ATCC 10231 at 100 mcg/ml by agar-dilution streak method; format: functional, organism-based
Klebsiella pneumoniae [3] = assay: Antibacterial activity against Klebsiella pneumoniae ATCC 10031 at 100 mcg/ml by agar-dilution streak method; format: functional, organism-based
[4] = tested on: Salmonella enterica subsp. enterica serovar Gallinarum; assay: Antibacterial activity against Salmonella gallinarum ATCC 9184 at 100 mcg/ml by agar-dilution streak method; format: functional, organism-based
[5] = tested on: Mycolicibacterium smegmatis; assay: Antibacterial activity against Mycobacterium smegmatis ATCC 607 by agar-dilution streak method; format: functional
Staphylococcus aureus [6] = assay: Antibacterial activity against Staphylococcus aureus ATCC 13709 by agar-dilution streak method; format: functional
[7] = tested on: Mycolicibacterium smegmatis; assay: Antibacterial activity against Mycobacterium smegmatis ATCC 607 at 100 mcg/ml by agar-dilution streak method; format: functional
Staphylococcus aureus [8] = assay: Antibacterial activity against Staphylococcus aureus ATCC 13709 at 100 mcg/ml by agar-dilution streak method; format: functional, organism-based
Candida albicans [9] = assay: Antifungal activity against Candida albicans ATCC 10231 by agar-dilution streak method; format: functional
Escherichia coli [10] = assay: Antibacterial activity against Escherichia coli ATCC 9637 by agar-dilution streak method; format: functional
Klebsiella pneumoniae [11] = assay: Antibacterial activity against Klebsiella pneumoniae ATCC 10031 by agar-dilution streak method; format: functional
[12] = tested on: Salmonella enterica subsp. enterica serovar Gallinarum; assay: Antibacterial activity against Salmonella gallinarum ATCC 9184 by agar-dilution streak method; format: functional

Structure (SMILES)	Activity (Escherichia coli [1])	Activity (Candida albicans [2])	Activity (Klebsiella pneumoniae [3])	Activity [4]	MIC [5]	MIC (Staphylococcus aureus [6])	Activity [7]	Activity (Staphylococcus aureus [8])	MIC (Candida albicans [9])	Activity (Escherichia coli [10])	MIC [7]	MIC (Escherichia coli [10])	MIC (Klebsiella pneumoniae [11])	MIC [12]
CC(C)=CCc1cc([C@H]2Oc3c(ccc(O)c3CC=C(C)C)C(=O)[C@@H]2O)ccc1O	inactive	inactive	inactive	inactive	6.25 µg/mL (≈ 15.3 µM)	6.25 µg/mL (≈ 15.3 µM)	–	–	–	–	–	–	–	–
COc1c(O)ccc([C@@H]2COc3c(ccc4c3C=CC(C)(C)O4)C2)c1O	inactive	inactive	inactive	inactive	–	50 µg/mL (≈ 141 µM)	inactive	–	–	–	–	–	–	–
COc1ccc([C@@H]2COc3c(ccc4c3C=CC(C)(C)O4)C2)c(O)c1	inactive	inactive	inactive	inactive	3.12 µg/mL (≈ 9.22 µM)	6.25 µg/mL (≈ 18.5 µM)	–	–	–	–	–	–	–	–
COc1ccc(-c2coc3cc(O)ccc3c2=O)cc1	inactive	inactive	inactive	inactive	–	–	inactive	inactive	–	–	–	–	–	–
CC1(C)C=Cc2c(O)ccc(C3=Cc4ccc(O)cc4OC3)c2O1 [GLABRENE]	inactive	inactive	inactive	inactive	25 µg/mL (≈ 77.6 µM)	25 µg/mL (≈ 77.6 µM)	–	–	–	–	–	–	–	–
CC1(C)C=Cc2c(ccc3c2OC[C@@H](c2ccc(O)cc2O)C3)O1 [GLABRIDIN]	inactive	–	inactive	inactive	6.25 µg/mL (≈ 19.3 µM)	6.25 µg/mL (≈ 19.3 µM)	–	inactive	25 µg/mL (≈ 77.1 µM)	inactive	–	–	–	–
CC(C)=CCc1cc([C@@H]2CC(=O)c3ccc(O)c(CC=C(C)C)c3O2)ccc1O [GLABROL]	inactive	inactive	inactive	inactive	1.56 µg/mL (≈ 3.97 µM)	1.56 µg/mL (≈ 3.97 µM)	–	–	–	–	–	–	–	–
CC(C)=CCc1c(O)ccc([C@@H]2COc3c(ccc4c3C=CC(C)(C)O4)C2)c1O [HISPAGLABRIDIN A]	inactive	inactive	inactive	inactive	3.12 µg/mL (≈ 7.95 µM)	3.12 µg/mL (≈ 7.95 µM)	–	–	–	–	–	–	–	–
CC1(C)C=Cc2c(ccc([C@@H]3COc4c(ccc5c4C=CC(C)(C)O5)C3)c2O)O1 [HISPAGLABRIDIN B]	inactive	inactive	inactive	inactive	3.12 µg/mL (≈ 7.99 µM)	6.25 µg/mL (≈ 16 µM)	–	–	–	–	–	–	–	–
CC1(C)C=Cc2c(ccc([C@@H]3COc4cc(O)ccc4C3)c2O)O1 [PHASEOLLINISOFLAVAN]	inactive	inactive	inactive	inactive	–	25 µg/mL (≈ 77.1 µM)	–	–	–	–	12.5 µg/mL (≈ 38.5 µM)	–	–	–
CN[C@@H]1[C@H](O[C@H]2[C@H](O[C@H]3[C@H](O)[C@@H](O)[C@H](N=C(N)N)[C@@H](O)[C@@H]3N=C(N)N)O[C@@H](C)[C@]2(O)C=O)O[C@@H](CO)[C@H](O)[C@H]1O.CN[C@@H]1[C@H](O[C@H]2[C@H](O[C@H]3[C@H](O)[C@@H](O)[C@H](N=C(N)N)[C@@H](O)[C@@H]3N=C(N)N)O[C@@H](C)[C@]2(O)C=O)O[C@@H](CO)[C@H](O)[C@H]1O.O=S(=O)(O)O.O=S(=O)(O)O.O=S(=O)(O)O [STREPTOMYCIN SULFATE]	–	inactive	–	–	1.25 µg/mL	5 µg/mL	–	–	–	–	–	5 µg/mL	2.5 µg/mL	50 µg/mL
